Assay results published in patent US10508069B2, “Acid/salt separation” (PURAC BIOCHEM B.V., priority 2011, dated 2019).
Where two headings read alike, the source gives them in different places. Each block holds one molecule with its values, some of them ahead of it.

Experiments:
[1] = Dicarboxylic acid remaining in solution while the HCl-acidified magnesium dicarboxylate solution is cooled (precipitation); format: physicochemical
Experimental: Magnesium hydroxide was added to a solution of dicarboxylic acid in water and heated up to complete dissolution. Four different carboxylic acids were used: adipic acid, fumaric acid, itaconic acid and 2,5-furandicarboxylic acid. The resulting dicarboxylate solution was meant to resemble a magnesium dicarboxylate solution obtained in a fermentation process. Although a magnesium dicarboxylate solution obtained in a fermentation process generally comprises compounds other than magnesium dicarbooxylate, such as a relatively large amount of impurities, the magnesium dicarboxylate solution prepared for this example was considered to sufficiently resemble a magnesium dicarboxylate solution obtained in a fermentation process to show the proof of principle that the invention works.
A certain amount of an aqueous solution of HCl was added to the magnesium dicarboxylate solution from Example 1, as indicated in Table 2. […] During cooling, samples were taken of the solution for each 10±1 centigrade.
The amount of crystal produced was calculated as difference between the initial dicarboxylic mass and the remaining dicarboxylic mass in solution.

[2] = water at 20° C.; cited from earlier work
[3] = Experimental: The solution was then cooled from 115° C. to 20° C. […] The precipitate was separated from the solution by filtration using a standard gravity filter.
[4] = remark: listed apart in the source
Experimental: An amount of 333 g aqueous solution of HCl (37 wt. % wt %) was added to the thus prepared magnesium succinate solution. […] During cooling, samples were taken of the solution and the precipitate of the mixture at 62, 52, 40, 31 and 20° C. The composition of the samples and the total amount of precipitate formed were determined.
The samples were taken only from the solution (for sampling, stirrer was stopped some few seconds, and after crystal settling, a sample was taken from the supernatant).

[5] = 20 ° C., MgCl2 solution, over precipitate
[6] = 30 ° C., MgCl2 solution, over precipitate
[7] = 40 ° C., MgCl2 solution, over precipitate
[8] = 50 ° C., MgCl2 solution, over precipitate
[9] = 60 ° C., MgCl2 solution after HCl acidulation, no precipitate yet

SMILES: O=C(O)c1ccc(C(=O)O)o1 [2,5-Furandicarboxylic Acid, 2,5-furandicarboxylic acid]
2,5-Furandicarboxylic Acid concentration in the solution ([1]; 22 ° C., MgCl2 solution, over precipitate): 0.06% | 2,5-Furandicarboxylic Acid concentration in the solution ([1]; 32 ° C., MgCl2 solution, over precipitate): 0.14% | 2,5-Furandicarboxylic Acid concentration in the solution ([1]; 42 ° C., MgCl2 solution, over precipitate): 0.33% | 2,5-Furandicarboxylic Acid concentration in the solution ([1]; 53 ° C., MgCl2 solution, over precipitate): 0.25% | 2,5-Furandicarboxylic Acid concentration in the solution ([1]; 62 ° C., MgCl2 solution, over precipitate): 0.38% | 2,5-Furandicarboxylic Acid concentration in the solution ([1]; 72 ° C., MgCl2 solution, over precipitate): 0.19% | 2,5-Furandicarboxylic Acid concentration in the solution ([1]; 84 ° C., MgCl2 solution, over precipitate): 0.52%

SMILES: O=C(O)/C=C/C(=O)O [Fumaric Acid, fumaric acid]
Fumaric Acid concentration in the solution [1, 5]: 0.5 wt % | Fumaric Acid concentration in the solution [1, 6]: 0.5 wt % | Fumaric Acid concentration in the solution ([1]; 39 ° C., MgCl2 solution, over precipitate): 0.7 wt % | Fumaric Acid concentration in the solution [1, 8]: 1.1 wt % | Fumaric Acid concentration in the solution [1, 9]: 1.6 wt %

SMILES: C=C(CC(=O)O)C(=O)O [Itaconic Acid, itaconic acid]
Itaconic Acid concentration in the solution [1, 5]: 2.6 wt % | Itaconic Acid concentration in the solution [1, 6]: 4.1 wt % | Itaconic Acid concentration in the solution ([1]; 41 ° C., MgCl2 solution, over precipitate): 6.0 wt % | Itaconic Acid concentration in the solution [1, 8]: 9.4 wt % | Itaconic Acid concentration in the solution [1, 9]: 13.2 wt %

SMILES: [Cl-].[Cl-].[Mg+2] [MgCl2, magnesium chloride]
saturation point in water [2]: 55 g/100 g water

Continued, values first:

Adipic Acid concentration in the solution [1, 5]: 0.7 wt % | Adipic Acid concentration in the solution [1, 6]: 1.2 wt % | Adipic Acid concentration in the solution [1, 7]: 2 wt % | Adipic Acid concentration in the solution ([1]; 51 ° C., MgCl2 solution, over precipitate): 3.5 wt % | Adipic Acid concentration in the solution ([1]; 60 ° C., MgCl2 solution, over precipitate): 6.1 wt % | Adipic Acid concentration in the solution ([1]; 70 ° C., MgCl2 solution, over precipitate): 11.5 wt % | Adipic Acid concentration in the solution ([1]; 81 ° C., MgCl2 solution after HCl acidulation, no precipitate yet): 14.2 wt %
SMILES: O=C(O)CCCCC(=O)O [Adipic Acid, adipic acid]

succinic acid present in the filtrate ([3]; HPLC, filtrate after cooling from 115° C. to 20° C., 31.7 wt. % magnesium chloride): 0.22 wt. % | Content succínic, Solution ([3]; solution after cooling to 20° C. and filtration, concentrated to 31.7 wt. % magnesium chloride): 0.22% | Succinic Acid concentration in the solution [4, 5]: 2.10 wt. % | Succinic Acid concentration in the solution ([4]; 31 ° C., MgCl2 solution, over precipitate): 3.40 wt. % | Succinic Acid concentration in the solution [4, 7]: 5.00 wt. % | Succinic Acid concentration in the solution ([4]; 52 ° C., MgCl2 solution, over precipitate): 8.20 wt. % | Succinic Acid concentration in the solution ([4]; 62 ° C., MgCl2 solution after HCl acidulation, no precipitate yet): 13.13 wt. %
SMILES: O=C(O)CCC(=O)O [Succinic Acid, succinic acid]
